Laboratory results from ChEMBL document CHEMBL1201862, “PubChem BioAssay data set” (2004).
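Grown in 96-well plates, cells were treated for 48 hours with each compound at five concentrations. Insufficient inhibition: endpoint recorded as highest concentration tested. At the GI50, growth is halved.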 Active and inactive are the calls of the source. No stated cut-off is given here; in the data, active = GI50 up to about 1.1 µM and inactive = higher.

How the values were obtained:
Assay in all cases: NCI anticancer screen, dose series, 48 h
LOX IMVI = tested on: LOX IMVI
HOP-18 = tested on: HOP-18
OVCAR-3 = tested on: OVCAR-3
MOLT-4 = tested on: MOLT-4
UO-31 = tested on: UO-31
DLD-1 = tested on: DLD-1
SNB-78 = tested on: SNB-78
SK-MEL-28 = tested on: SK-MEL-28
HT-29 = tested on: HT-29
IGROV-1 = tested on: IGROV-1
RPMI-8226 = tested on: RPMI-8226
SK-MEL-2 = tested on: SK-MEL-2
DMS-114 = tested on: DMS-114
KM12 = tested on: KM12
SK-MEL-5 = tested on: SK-MEL-5
SK-OV-3 = tested on: SK-OV-3
SNB-19 = tested on: SNB-19
HOP-92 = tested on: HOP-92
UACC-257 = tested on: UACC-257
COLO 205 = tested on: COLO 205
HCC 2998 = tested on: HCC 2998
DMS-273 = tested on: DMS-273
K562 = tested on: K562
LXFL 529 = tested on: LXFL 529
NCI-H23 = tested on: NCI-H23
A549 = tested on: A549
NCI-H522 = tested on: NCI-H522
786-0 = tested on: 786-0
NCI-H460 = tested on: NCI-H460
OVCAR-5 = tested on: OVCAR-5
SF-295 = tested on: SF-295
SNB-75 = tested on: SNB-75
XF498 = tested on: XF498
CCRF-CEM = tested on: CCRF-CEM
KM-20L2 = tested on: KM-20L2
SF-539 = tested on: SF-539
RXF 393 = tested on: RXF 393
HL-60 = tested on: HL-60
HOP-62 = tested on: HOP-62
EKVX = tested on: EKVX
A498 = tested on: A498
Malme-3M = tested on: Malme-3M
OVCAR-8 = tested on: OVCAR-8
HCT-116 = tested on: HCT-116
ACHN = tested on: ACHN
SW-620 = tested on: SW-620
U-251 = tested on: U-251
TK-10 = tested on: TK-10
SF-268 = tested on: SF-268
UACC-62 = tested on: UACC-62
SN12C = tested on: SN12C
MCF7 = tested on: MCF7
OVCAR-4 = tested on: OVCAR-4
HCT-15 = tested on: HCT-15
M19-MEL = tested on: M19-MEL
SR = tested on: SR
CAKI-1 = tested on: CAKI-1
M14 = tested on: M14
NCI-H226 = tested on: NCI-H226

## COc1ccc2c3c1O[C@]1(C)C34CCN(C)C(C2)C42C=C[C@@]1(OC)c1c(O)ccc(O)c12
LOX IMVI
  GI50: > 100000 nM (inactive)
HOP-18
  GI50: > 100000 nM (inactive)
OVCAR-3
  GI50: > 100000 nM (inactive)
MOLT-4
  GI50: > 100000 nM (inactive)
UO-31
  GI50: > 100000 nM (inactive)
DLD-1
  GI50: > 100000 nM (inactive)
SNB-78
  GI50: 61800 nM (inactive)
SK-MEL-28
  GI50: > 100000 nM (inactive)
HT-29
  GI50: > 100000 nM (inactive)
IGROV-1
  GI50: > 100000 nM (inactive)
RPMI-8226
  GI50: > 100000 nM (inactive)
SK-MEL-2
  GI50: > 100000 nM (inactive)
DMS-114
  GI50: > 100000 nM (inactive)
KM12
  GI50: > 100000 nM (inactive)
SK-MEL-5
  GI50: > 100000 nM (inactive)
SK-OV-3
  GI50: > 100000 nM (inactive)
SNB-19
  GI50: > 100000 nM (inactive)
HOP-92
  GI50: 59300 nM (inactive)
UACC-257
  GI50: > 100000 nM (inactive)
COLO 205
  GI50: > 100000 nM (inactive)
HCC 2998
  GI50: > 100000 nM (inactive)
DMS-273
  GI50: > 100000 nM (inactive)
K562
  GI50: > 100000 nM (inactive)
LXFL 529
  GI50: > 100000 nM (inactive)
NCI-H23
  GI50: > 100000 nM (inactive)
A549
  GI50: > 100000 nM (inactive)
NCI-H522
  GI50: > 100000 nM (inactive)
786-0
  GI50: 95700 nM (inactive)
NCI-H460
  GI50: > 100000 nM (inactive)
OVCAR-5
  GI50: > 100000 nM (inactive)
SF-295
  GI50: > 100000 nM (inactive)
SNB-75
  GI50: > 100000 nM (inactive)
XF498
  GI50: > 100000 nM (inactive)
CCRF-CEM
  GI50: > 100000 nM (inactive)
KM-20L2
  GI50: > 100000 nM (inactive)
SF-539
  GI50: > 100000 nM (inactive)
RXF 393
  GI50: > 100000 nM (inactive)
HL-60
  GI50: 17800 nM (inactive)
HOP-62
  GI50: > 100000 nM (inactive)
EKVX
  GI50: > 100000 nM (inactive)
A498
  GI50: > 100000 nM (inactive)
Malme-3M
  GI50: 64700 nM (inactive)
OVCAR-8
  GI50: > 100000 nM (inactive)
HCT-116
  GI50: > 100000 nM (inactive)
ACHN
  GI50: > 100000 nM (inactive)
SW-620
  GI50: > 100000 nM (inactive)
U-251
  GI50: > 100000 nM (inactive)
TK-10
  GI50: > 100000 nM (inactive)
SF-268
  GI50: > 100000 nM (inactive)

## C[C@@H]1[C@@H]2[C@@H](C=C3C4CCC5Cc6nc7c(nc6C[C@@]5(C)C4C[C@H](O)[C@]32CO)CC2CCC3C4=C[C@H]5O[C@@]6(OC(C)(CO)C[C@@H]6O)[C@H](C)[C@@]5(O)[C@]4(C)[C@@H](O)CC3[C@]2(C)C7)O[C@]12CCC(C)(C)O2 (stereo partly specified)
UACC-62
  GI50: 80.2 nM (active)
HOP-18
  GI50: 401 nM (active)
OVCAR-3
  GI50: 388 nM (active)
MOLT-4
  GI50: 5.05 nM (active)
UO-31
  GI50: 57.5 nM (active)
SN12C
  GI50: 904 nM (active)
DLD-1
  GI50: 822 nM (active)
SNB-78
  GI50: 4.86 nM (active)
SK-MEL-28
  GI50: 30.5 nM (active)
HT-29
  GI50: 62.5 nM (active)
IGROV-1
  GI50: 387 nM (active)
RPMI-8226
  GI50: 1.44 nM (active)
SK-MEL-2
  GI50: 18.9 nM (active)
KM12
  GI50: 57 nM (active)
SK-MEL-5
  GI50: 32.4 nM (active)
SK-OV-3
  GI50: 16.7 nM (active)
MCF7
  GI50: 0.75 nM (active)
OVCAR-4
  GI50: 959 nM (active)
SNB-19
  GI50: 111 nM (active)
HOP-92
  GI50: 8.15 nM (active)
UACC-257
  GI50: 66.8 nM (active)
COLO 205
  GI50: 80.9 nM (active)
HCC 2998
  GI50: 145 nM (active)
DMS-273
  GI50: 0.826 nM (active)
HCT-15
  GI50: 135 nM
K562
  GI50: 16.4 nM (active)
LXFL 529
  GI50: 11.8 nM (active)
M19-MEL
  GI50: 966 nM (active)
NCI-H23
  GI50: 32.8 nM (active)
A549
  GI50: 13.7 nM (active)
NCI-H522
  GI50: 579 nM (active)
786-0
  GI50: 2.62 nM (active)
SR
  GI50: 2.55 nM (active)
CAKI-1
  GI50: 21 nM (active)
NCI-H460
  GI50: 10.1 nM (active)
OVCAR-5
  GI50: 488 nM (active)
SF-295
  GI50: 0.508 nM (active)
SNB-75
  GI50: 0.38 nM (active)
M14
  GI50: 18.2 nM (active)
XF498
  GI50: 5.07 nM (active)
CCRF-CEM
  GI50: 11.7 nM (active)
KM-20L2
  GI50: 23.3 nM (active)
SF-539
  GI50: 0.764 nM (active)
RXF 393
  GI50: 0.82 nM (active)
HL-60
  GI50: 6.92 nM (active)
HOP-62
  GI50: 3.11 nM (active)
EKVX
  GI50: 76.6 nM (active)
A498
  GI50: 8.83 nM (active)
Malme-3M
  GI50: 101 nM (active)
NCI-H226
  GI50: 22.5 nM (active)
OVCAR-8
  GI50: 425 nM (active)
HCT-116
  GI50: 30.6 nM (active)
ACHN
  GI50: 171 nM (active)
SW-620
  GI50: 22.5 nM (active)
U-251
  GI50: 5.3 nM (active)
TK-10
  GI50: 473 nM (active)
SF-268
  GI50: 20.8 nM (active)
